The structures appear in SMILES notation. Converted amounts (≈) assume the structure as drawn.

For this data set the following is noted: buffer; pH 7.4; 200.0 µM.
Compound `CC(=O)C1=C(O)C(=O)N(Cc2ccccc2)C1c1ccc([N+](=O)[O-])cc1` (centres undefined) showed a solubility (kinetic) of more than 52.9 µg/mL. Under `CCOc1c(Nc2cccc(Cl)c2)c(=O)c1=O` stands more than 37.8 µg/mL; under `Cc1cc([N+](=O)[O-])ccc1NC(=O)CCC(=O)N1CCCCCC1`, more than 50 µg/mL. Under `COc1ccccc1CN(C)C(=O)COC(=O)c1cc(C)oc1C` stands more than 49.7 µg/mL; under `CC(=O)c1ccc(N2CCN(CC3CCCCC3)CC2)cc1`, 22 µg/mL (≈ 73.2 µM); under `NS(=O)(=O)c1ccc(NNC(=O)c2ccc(Br)o2)c([N+](=O)[O-])c1`, more than 60.8 µg/mL. Under `CCc1ccc(NC(=O)C(=O)NCc2ccccn2)cc1` stands 16.1 µg/mL (≈ 56.8 µM); under `O=C(NCc1ccccc1)C(=O)Nc1cccc(C(=O)O)c1`, more than 44.7 µg/mL. As to `Cc1cc(C)cc(NC(=O)N2c3ccccc3NC(=O)CC2C)c1` (centres undefined), the solubility (kinetic) stood at 46.8 µg/mL (≈ 145 µM). Under `CCn1c(SCC(=O)OC(C)C)nnc1-c1ccccc1OC` stands more than 50.3 µg/mL; under `CC(NC(=O)COc1ccccc1)C(=O)NCc1ccc(S(N)(=O)=O)cc1` (centres undefined), more than 58.7 µg/mL. `CCCC(=O)N1CCC(O)(c2cccc(F)c2)CC1` registered a kinetic solubility of more than 39.8 µg/mL. Under `CCN(CC)c1nc(-c2ccccc2)nc2ccccc12.Cl` stands 0.5 µg/mL; under `CCOC(=O)C1=C(COC(=O)/C=C/c2cccc(F)c2)NC(=O)NC1C` (centres undefined), 4.6 µg/mL (≈ 12.7 µM). Under `O=C(NCCc1csc(-c2cccnc2)n1)c1cccc(Cl)c1` stands more than 51.6 µg/mL; under `CN1c2ccc(Cl)cc2C(=O)NC1C1CC=CCC1` (centres undefined), 3.4 µg/mL (≈ 12.3 µM); under `Cc1ccc(S(=O)(=O)n2cnc3ccccc32)cc1[N+](=O)[O-]`, more than 47.6 µg/mL. Take `Cc1ccc(C(=O)NCC(=O)NC23CC4CC(CC(C4)C2)C3)cc1`: the kinetic solubility was 4.2 µg/mL (≈ 12.9 µM). Under `CN1CCCCCC1=Nc1ccc([N+](=O)[O-])cc1.Cl` stands more than 42.6 µg/mL. In turn, `O=C(NCCN1CCOCC1)c1cc(-c2ccccc2Cl)on1` gave a solubility (kinetic) of more than 50.4 µg/mL. Under `Cc1cc(S(=O)(=O)N2CCOCC2)c(C)s1` stands more than 39.2 µg/mL. Under `CCNC(=S)N1CCn2cccc2C1c1cccnc1` (centres undefined) stands 41 µg/mL (≈ 143 µM); under `NC(=O)c1ccccc1NC(=O)c1ccc2c(c1)OCO2`, 3.1 µg/mL (≈ 10.9 µM). For `COc1cc(NC(=O)C2CCN(c3cnccn3)CC2)cc(OC)c1`, the kinetic solubility came to 47.1 µg/mL (≈ 138 µM). On to `COc1ccc2oc(=O)c(C(=O)NC(C)c3ccccc3)cc2c1` (centres undefined), for which the kinetic solubility was less than 0.7 µg/mL. Under `CC(C(=O)c1c[nH]c2ccccc12)N1CCN(C(=O)c2ccco2)CC1` (centres undefined) stands more than 52.7 µg/mL. Under `O=c1[nH]c2ccccc2nc1C(Nc1ccccc1)c1ccccc1` (centres undefined) stands less than 0.2 µg/mL; under `Cc1ccc(NC(=O)Cc2ccsc2)cc1Cl`, 4.6 µg/mL (≈ 17.3 µM); under `CNC(=O)Nc1cccc2cccnc12`, more than 30.2 µg/mL. Under `Cl.NCCCCCc1nnc(SCC(N)=O)o1` stands more than 42.1 µg/mL. Turning to `CCCc1ccc(C(C)NC(=S)NC2CCCCC2)cc1` (centres undefined), the kinetic solubility worked out at 1.2 µg/mL (≈ 3.94 µM). Under `COC(=O)c1cc(-c2cccs2)nc2ccccc12` stands 9.6 µg/mL (≈ 35.6 µM); under `Cc1ccccc1C1NC(=S)NC2=C1C(=O)CC(C)(C)C2` (centres undefined), 39.3 µg/mL (≈ 131 µM); under `CCOC(=O)c1ccc(NC(=S)NCc2cccnc2)cc1`, more than 47.3 µg/mL. Under `Cc1cccc(NC(=O)C(=O)NCC2CCCO2)c1` (centres undefined) stands more than 39.3 µg/mL; under `CN(CC(=O)Nc1ccc(F)cc1)CC(=O)N1CCCC1`, 43 µg/mL (≈ 147 µM). `COc1cccc(CNC(=O)N[C@@H](C)C(=O)O)c1` yielded a kinetic solubility of more than 37.8 µg/mL.

Turning to `S=C(Nc1cccnc1)N1CCc2ccccc21`, the kinetic solubility is more than 38.3 µg/mL.

`O=C(CNCc1ccco1)Nc1cc(S(=O)(=O)N2CCOCC2)ccc1N1CCOCC1` came in with a kinetic solubility of more than 69.7 µg/mL.

`Cc1ccc(C)c(N=Cc2c(O)c3ccccc3oc2=O)c1` yielded a solubility (kinetic) of 1.6 µg/mL (≈ 5.45 µM). Under `OCC1(Cc2ccccc2)CCN(Cc2cccc(F)c2F)CC1` stands 43 µg/mL (≈ 130 µM); under `CC(C)c1cccc(OCCN2CCCC2)c1`, 22.9 µg/mL (≈ 98.1 µM); under `O=C(COC(=O)C1CC2C=CC1C2)Nc1c(Br)cc([N+](=O)[O-])cc1Br` (centres undefined), 57.2 µg/mL (≈ 121 µM).

`CN1C(=O)CC(c2ccccc2)Nc2ccccc21.Cl` (centres undefined): the solubility (kinetic) was more than 43.3 µg/mL. Compound `O=C(O)c1ccc(-n2c(/C=C/c3ccccc3)nc3ccccc3c2=O)cc1` yielded a solubility (kinetic) of more than 55.3 µg/mL. Under `COC(OC)C1Nc2ccccc2C(=O)N1c1ccc(F)cc1` (centres undefined) stands more than 47.4 µg/mL; under `O=C(CCS(=O)(=O)c1ccccc1)Nc1ccccn1`, more than 43.6 µg/mL; under `NCC(=O)Nc1ccc(Br)cc1`, 27.6 µg/mL (≈ 120 µM). Under `CC1Oc2ccccc2N(CC(=O)N2CCCC2)C1=O` (centres undefined) stands more than 41.1 µg/mL; under `CCOC(=O)c1ccc(NCc2cccnc2)cc1`, more than 38.4 µg/mL; under `C=CCSc1nc2ccccc2c(=O)n1C1CCOC(C)(C)C1` (centres undefined), 8.6 µg/mL (≈ 26 µM). Compound `O=C(NCc1ccccc1Cl)c1ccc2ccccc2n1` displayed a kinetic solubility of 6.2 µg/mL (≈ 20.9 µM). Under `COc1ccc(C(=O)Nc2ccc(NC(=O)c3ccccc3F)cn2)cc1` stands 1 µg/mL (≈ 2.74 µM).

Turning to `Cn1c(O)c(C(=Nc2ccc(F)cc2)c2ccccc2)c(=O)n(C)c1=O`, the kinetic solubility was determined as 7.4 µg/mL (≈ 20.9 µM). This solubility kinetic is about 7.4-fold higher than that of the compound before. Under `Cc1csc(SCC(=O)Nc2ccccc2C)n1` stands more than 41.8 µg/mL; under `Fc1ccccc1-c1nc(-c2ccncc2)no1`, 6 µg/mL (≈ 24.9 µM); under `O=C(O)c1ccc(/C=N/n2cc(-c3ccccc3)[nH]c2=S)cc1`, more than 48.5 µg/mL. In turn, `CC(C)(C)N1CC(C(=O)Nc2ccc(C#N)cc2)CC1=O` (centres undefined) returned a kinetic solubility of 40.2 µg/mL (≈ 141 µM). The compound `CN(C)c1nc2ncn(Cc3ccccc3)c2c(=O)[nH]1` registered a solubility (kinetic) of more than 40.4 µg/mL. Under `CSc1ncccc1C(=O)OCC(=O)N1CCc2ccccc21` stands 2 µg/mL (≈ 6.09 µM). Under `C=CC[N+]1(C)C2CCC1CC(O)C2.[Br-]` (centres undefined) stands more than 39.3 µg/mL. Under `O=C(CCNC(=O)c1ccc([N+](=O)[O-])cc1)Nc1nccs1` stands 12.9 µg/mL (≈ 40.3 µM). Consider `CN(Cc1ccccc1)C(=O)c1cc(=O)[nH]c2ccccc12`, for which the kinetic solubility was more than 43.9 µg/mL.

For the compound `CCn1c(=O)c2c(nc(SCC(=O)N3CCC(C)CC3)n2C)n(C)c1=O`, the kinetic solubility was more than 56.9 µg/mL.

On to `CC(C)NC(=NCc1ccc(Cl)cc1Cl)Nc1ccccc1`, for which the solubility (kinetic) is more than 50.4 µg/mL. Under `Cc1ccc(S(=O)(=O)NCC(=O)OCC(=O)N2CC(C)OC(C)C2)cc1` (centres undefined) stands more than 57.7 µg/mL; under `COc1ccc([N+](=O)[O-])cc1NC(=O)COC(=O)Cn1cnc2ccccc2c1=O`, more than 61.9 µg/mL; under `O=C(COC(=O)/C=C/c1ccccc1)NC1CCCC1`, 17.2 µg/mL (≈ 62.9 µM).

Take `O=C1NC(=O)N(Cc2ccccc2)C1=O`: the solubility (kinetic) is more than 30.6 µg/mL. Regarding `CC(=O)N/C(=C\c1ccccc1)C(=O)OC/C=C/c1ccccc1`, the kinetic solubility came to 47.3 µg/mL (≈ 147 µM).

As to `COC(=O)C(NC(=O)CN1C(=O)c2ccccc2C1=O)c1ccc(O)c(OC)c1` (centres undefined), the solubility (kinetic) was determined as 55.8 µg/mL (≈ 140 µM). Under `CCOc1cccc(C(=O)NC(=S)Nc2ccc3c(c2)OCCO3)c1` stands 4 µg/mL (≈ 11.2 µM); under `O=S(=O)(c1ccc(Cl)cc1)N1CCN(c2ccccn2)CC1`, 0.5 µg/mL (≈ 1.48 µM); under `O=C(CNc1cccc(S(=O)(=O)N2CCCC2)c1)Nc1cccc(C(F)(F)F)c1`, 21.1 µg/mL (≈ 49.4 µM).

In general, kinetic solubility refers to the concentration staying in solution when a stock, usually in DMSO, is diluted into the medium.
